Experimental findings from patent US8759535B2, “Substituted fused imidazole derivatives, pharmaceutical compositions, and methods of use thereof” (High Point Pharmaceuticals, LLC, priority 2010, dated 2014) are described below.

Where a name gives a salt, the structure may show the parent alone.

In this assay the test system is HMOX1. Kind of assay: HMOX1 Protein Assay (immunostaining of HO-1 in NHLF cells, GE InCell 1000). The assay is classed as cell-based. To be noted: Homo sapiens, fold change above DMSO treated cells, 16 h; for fold induction at 5 µM: 5 μM compound; for fold induction at 3 µM: 3 μM compound (asterisk). In short, it runs like this:
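NHLF cells seeded overnight in FGM-2, then exposed to compound or DMSO vehicle for 16 h, fixed, and immunostained for HO-1 with Hoechst nuclear counterstain; imaged on InCell 1000. Values are fold change over DMSO-treated cells, generally at 5 μM (0.8% DMSO), with asterisked entries at 3 μM.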

As a reminder, the fold induction is the ratio of treated to control signal. In turn, `Cn1c(Nc2nc3ccc(OC(F)(F)F)cc3s2)nc2cc(C(=O)NCC(C)(C)O)ccc21` [Example 45, 1-Methyl-2-(6-trifluoromethoxy-benzothiazol-2-ylamino)-1H-benzoimidazole-5-carboxylic acid (2-hydroxy-2-methyl-propyl)-amide] registered a fold induction at 5 µM of 12.5. In turn, `CCNC(=O)c1ccc2c(c1)nc(Nc1nc3cc(F)c(F)cc3s1)n2C` [Example 35, 2-(5,6-Difluoro-benzothiazol-2-ylamino)-1-methyl-1H-benzoimidazole-5-carboxylic acid ethylamide] registered a fold induction at 5 µM of 12.4. Consider `Cn1c(Nc2nc3ccc(Cl)cc3s2)nc2cc(C(=O)NCCN3CCC(F)(F)CC3)ccc21` [Example 335, 2-(6-Chloro-benzothiazol-2-ylamino)-1-methyl-1H-benzoimidazole-5-carboxylic acid [2-(4,4-difluoro-piperidin-1-yl)-ethyl]-amide], for which the fold induction at 5 µM stood at 18.9.

The compound `Cn1c(Nc2nc3ccc(OC(F)(F)F)cc3s2)nc2cc(C(=O)NC[C@@H](O)CO)ccc21` [Example 281, 1-Methyl-2-(6-trifluoromethoxy-benzothiazol-2-ylamino)-1H-benzoimidazole-5-carboxylic acid ((R)-2,3-dihydroxy-propyl)-amide] had a fold induction at 5 µM of 35.6. In the case of `CN(C)S(=O)(=O)N1CCN(C(=O)CNC(=O)c2ccc3c(c2)nc(Nc2nc4ccc(Cl)cc4s2)n3C)CC1` [Example 430, 2-(6-Chloro-benzothiazol-2-ylamino)-1-methyl-1H-benzoimidazole-5-carboxylic acid [2-(4-dimethylsulfamoyl-piperazin-1-yl)-2-oxoethyl]-amide], the fold induction at 5 µM was 22.7.

Compound `C[C@H](O)CNC(=O)c1ccc2c(c1)nc(Nc1nc3ccc(OC(F)(F)F)cc3s1)n2C` [Example 50, 1-Methyl-2-(6-trifluoromethoxy-benzothiazol-2-ylamino)-1H-benzoimidazole-5-carboxylic acid ((S)-2-hydroxy-propyl)-amide] returned a fold induction at 5 µM of 11.1. For `Cn1c(Nc2nc3ccc(Cl)cc3s2)nc2cc(C(=O)NCC(=O)N3CC[C@H](O)C3)ccc21` [Example 401, 2-(6-Chloro-benzothiazol-2-ylamino)-1-methyl-1H-benzoimidazole-5-carboxylic acid [2-((S)-3-hydroxy-pyrrolidin-1-yl)-2-oxo-ethyl]-amide], the fold induction at 3 µM amounted to 27.

For the compound `CC(O)C(=O)N1CC[C@@H](NC(=O)c2ccc3c(c2)nc(Nc2nc4ccc(Cl)cc4s2)n3C)C1` (stereo in doubt) [Example 295, 2-(6-Chloro-benzothiazol-2-ylamino)-1-methyl-1H-benzoimidazole-5-carboxylic acid [(R)-1-((R)-2-hydroxy-propionyl)-pyrrolidin-3-yl]-amide], the fold induction at 3 µM is 29. `Cn1c(Nc2nc3ccc(Cl)cc3s2)nc2cc(C(=O)NC3CCN(CCNS(C)(=O)=O)C3)ccc21` (centres unmarked) [Example 300, 2-(6-Chloro-benzothiazol-2-ylamino)-1-methyl-1H-benzoimidazole-5-carboxylic acid [1-(2-methanesulfonylamino-ethyl)-pyrrolidin-3-yl]-amide] returned a fold induction at 5 µM of 26.2. `Cn1c(Nc2nc3ccc(OC(F)(F)F)cc3s2)nc2cc(C(=O)NCCOCCCO)ccc21` [Example 246, 1-Methyl-2-(6-trifluoromethoxy-benzothiazol-2-ylamino)-1H-benzoimidazole-5-carboxylic acid [2-(3-hydroxy-propoxy)-ethyl]-amide]: the fold induction at 5 µM was 76.5. Regarding `Cn1c(Nc2nc3ccc(Cl)cc3s2)nc2cc(C(=O)NCC(=O)N3CCC(O)CC3)ccc21` [Example 436, 2-(6-Chloro-benzothiazol-2-ylamino)-1-methyl-1H-benzoimidazole-5-carboxylic acid [2-(4-hydroxy-piperidin-1-yl)-2-oxo-ethyl]-amide], the fold induction at 5 µM is 29.3. On to `Cn1c(Nc2nc3ccc(OC(F)(F)F)cc3s2)nc2cc(C(=O)NCCN3CCNC3=O)ccc21` [Example 330, 1-Methyl-2-(6-trifluoromethoxy-benzothiazol-2-ylamino)-1H-benzoimidazole-5-carboxylic acid [2-(2-oxo-imidazolidin-1-yl)-ethyl]-amide], for which the fold induction at 5 µM amounted to 37.7.

In the case of `CN(C)C(=O)CCNC(=O)c1ccc2c(c1)nc(Nc1nc3ccc(C(F)(F)F)cc3s1)n2C` [Example 372, 1-Methyl-2-(6-trifluoromethyl-benzothiazol-2-ylamino)-1H-benzoimidazole-5-carboxylic acid (2-dimethylcarbamoyl-ethyl)-amide], the fold induction at 3 µM is 25.5. `Cn1c(Nc2nc3ccc(OC(F)(F)F)cc3s2)nc2cc(C(=O)NCCCCN)ccc21` [Example 346, 1-Methyl-2-(6-trifluoromethoxy-benzothiazol-2-ylamino)-1H-benzoimidazole-5-carboxylic acid (4-amino-butyl)-amide hydrochloride] returned a fold induction at 3 µM of 12.9. `Cn1c(Nc2nc3ccc(OC(F)(F)F)cc3s2)nc2cc(C(=O)NCC(=O)NCc3ccc(O)cc3)ccc21` [Example 389, 1-Methyl-2-(6-trifluoromethoxy-benzothiazol-2-ylamino)-1H-benzoimidazole-5-carboxylic acid [(4-hydroxy-benzylcarbamoyl)-methyl]-amide]: the fold induction at 5 µM stood at 38.6. The same measure, in the same setting: in the case of `Cn1c(Nc2nc3ccc(Cl)cc3s2)nc2cc(C(=O)N[C@H]3CC[C@H](C(=O)O)CC3)ccc21` [Example 378, 4-{[2-(6-Chloro-benzothiazol-2-ylamino)-1-methyl-1H-benzoimidazole-5-carbonyl]-amino}-trans-cyclohexanecarboxylic acid] it was 24.9; in that of `Cn1c(Nc2nc3ccc(OC(F)(F)F)cc3s2)nc2cc(C(=O)NCCN)ccc21` [Example 104, 1-Methyl-2-(6-trifluoromethoxy-benzothiazol-2-ylamino)-1H-benzoimidazole-5-carboxylic acid (2-amino-ethyl)-amide hydrochloride], 16.3; in that of `CCNC(=O)c1cc2nc(Nc3nc4ccc(OC(F)(F)F)cc4s3)n(C)c2cc1F` [Example 42, 6-Fluoro-1-methyl-2-(6-trifluoromethoxy-benzothiazol-2-ylamino)-1H-benzoimidazole-5-carboxylic acid ethylamide], 34.7. The compound `COC(=O)c1ccc2c(c1)nc(Nc1nc3ccc(C)cc3s1)n2C` [Example 114, 1-Methyl-2-(6-methyl-benzothiazol-2-ylamino)-1H-benzoimidazole-5-carboxylic acid methyl ester] gave a fold induction at 5 µM of 5.1. Compound `Cn1c(Nc2nc3ccc(Cl)cc3s2)nc2cc(C(=O)NCC(=O)N3CCC(O)C3)ccc21` (centres unmarked) [Example 399, 2-(6-Chloro-benzothiazol-2-ylamino)-1-methyl-1H-benzoimidazole-5-carboxylic acid [2-(3-hydroxy-pyrrolidin-1-yl)-2-oxo-ethyl]-amide] registered a fold induction at 5 µM of 20.8. Same read-out and setting: in the case of `COc1cc2c(cc1C(=O)O)nc(Nc1nc3ccc(OC(F)(F)F)cc3s1)n2C` [Example 62, 6-Methoxy-1-methyl-2-(6-trifluoromethoxy-benzothiazol-2-ylamino)-1H-benzoimidazole-5-carboxylic acid] it was 20.3; in that of `COc1cc2c(cc1C(=O)NCC(=O)N(C)C)nc(Nc1nc3ccc(OC(F)(F)F)cc3s1)n2C` [Example 63, 6-Methoxy-1-methyl-2-(6-trifluoromethoxy-benzothiazol-2-ylamino)-1H-benzoimidazole-5-carboxylic acid dimethylcarbamoylmethyl-amide], 9.8; in that of `Cn1c(Nc2nc3ccc(Cl)cc3s2)nc2cc(C(=O)N[C@H]3CCCNC3)ccc21` [Example 310, 2-(6-Chloro-benzothiazol-2-ylamino)-1-methyl-1H-benzoimidazole-5-carboxylic acid (S)-piperidin-3-ylamide hydrochloride], 24.6. In the case of `CCNC(=O)c1ccc2c(c1)nc(Nc1nc3ccc(OC(F)(F)F)cc3s1)n2CC` [Example 156, 1-Ethyl-2-(6-trifluoromethoxy-benzothiazol-2-ylamino)-1H-benzoimidazole-5-carboxylic acid ethylamide], the fold induction at 5 µM came out at 21. With `COC(=O)c1ccc2c(c1)nc(Nc1nc3ccc(F)cc3s1)n2C` [Example 112, 2-(6-Fluoro-benzothiazol-2-ylamino)-1-methyl-1H-benzoimidazole-5-carboxylic acid methyl ester], the fold induction at 5 µM came to 17.5. The same measure, in the same setting: in the case of `Cn1c(Nc2nc3ccc(OC(F)(F)F)cc3s2)nc2cc(C(=O)NCCOCCOCCO)ccc21` [Example 256, 1-Methyl-2-(6-trifluoromethoxy-benzothiazol-2-ylamino)-1H-benzoimidazole-5-carboxylic acid {2-[2-(2-hydroxy-ethoxy)-ethoxy]-ethyl}-amide] it was 48. Still for that read-out and setting: in the case of `CN(C)CC(=O)N1CCC(NC(=O)c2ccc3c(c2)nc(Nc2nc4ccc(Cl)cc4s2)n3C)CC1` [Example 313, 2-(6-Chloro-benzothiazol-2-ylamino)-1-methyl-1H-benzoimidazole-5-carboxylic acid [1-(2-dimethylamino-acetyl)-piperidin-4-yl]-amide] it was 22.9; in that of `COCCNC(=O)c1ccc2c(c1)nc(Nc1nc3ccc(Cl)cc3s1)n2C` [Example 31, 2-(6-Chloro-benzothiazol-2-ylamino)-1-methyl-1H-benzoimidazole-5-carboxylic acid (2-methoxy-ethyl)-amide], 23.6; in that of `CNCCn1c(Nc2nc3ccc(Cl)cc3s2)nc2cc(C(=O)NCCOCCO)ccc21` [Example 240, 2-(6-Chloro-benzothiazol-2-ylamino)-1-(2-methylamino-ethyl)-1H-benzoimidazole-5-carboxylic acid [2-(2-hydroxy-ethoxy)-ethyl]-amide hydrochloride], 35.4.
